Reference: US10202360B2 (CELGENE QUANTICEL RESEARCH, INC., priority 2016, dated 2019)

Molecular target: CREBBP (Homo sapiens (Human), UniProt Q92793)
Assay: In vitro enzyme inhibition assay - CREBBP inhibition (AlphaScreen, biotinylated H4-tetraacetyl peptide)
Format: binding
Details: Table 28; AlphaScreen, H4-tetraacetyl peptide
Method in brief: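 Displacement of 20 nM biotinylated tetraacetyl-H4 peptide from 50 nM E. coli-expressed His-CREBBP, measured by AlphaScreen after bead equilibration for 2 h.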

CREBBP, sequence (Q92793 1081-1197): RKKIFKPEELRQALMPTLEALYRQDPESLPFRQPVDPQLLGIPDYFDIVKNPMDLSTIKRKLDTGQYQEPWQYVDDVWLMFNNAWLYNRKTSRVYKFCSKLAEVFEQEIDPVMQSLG

| SMILES | IC50 [nM] |
| --- | --- |
| Cn1cc(-c2cc(NS(=O)(=O)CCC(F)(F)F)nc(Oc3c(F)cccc3Cl)n2)ccc1=O [Example 231, 3,3,3-Trifluoro-propane-1-sulfonic acid [2-(2-chloro-6-fluoro-phenoxy)-6-(1-methyl-6-oxo-1,6-dihydro-pyridin-3-yl)-pyrimidin-4-yl]-amide] | < 500 |
| CC[C@H](C)S(=O)(=O)Nc1cc(-c2cc(C)c(=O)n(C)c2)nc(Oc2c(C)cccc2Cl)n1 [Example 222, (S)-N-(2-(2-chloro-6-methylphenoxy)-6-(1,5-dimethyl-6-oxo-1,6-dihydropyridin-3-yl)pyrimidin-4-yl)butane-2-sulfonamide] | < 500 |
| CCCCS(=O)(=O)Nc1nc(Oc2c(C)cccc2Cl)nc(-c2cc(C)c(=O)n(C)c2)n1 [Example 188, Butane-1-sulfonic acid [4-(2-chloro-6-methyl-phenoxy)-6-(1,5-dimethyl-6-oxo-1,6-dihydro-pyridin-3-yl)-[1,3,5]triazin-2-yl]-amide] | < 500 |
| Cc1cc(-c2cc(NS(=O)(=O)C(C)C)nc(Oc3cc(C(C)C)ccc3Cl)n2)cn(C)c1=O [Example 40, Propane-2-sulfonic acid [2-(2-chloro-5-isopropyl-phenoxy)-6-(1,5-dimethyl-6-oxo-1,6-dihydro-pyridin-3-yl)-pyrimidin-4-yl]-amide] | < 500 |
| CCCCNc1cc(-c2ccc(=O)n(C)c2)nc(OC)n1 [Example 325, 5-(6-Butylamino-2-methoxy-pyrimidin-4-yl)-1-methyl-1H-pyridin-2-one] | 500 to 5000 |
| CCS(=O)(=O)Nc1cc(-c2ccc(=O)n(C)c2)nc(OC2CCCCC2)n1 [Example 246, Ethanesulfonic acid [2-cylcohexyloxy-6-(1-methyl-6-oxo-1,6-dihydro-pyridin-3-yl)-pyrimidin-4-yl]-amide] | < 500 |
| Cc1cccc(F)c1Oc1nc(NC(C)C)cc(-c2ccc(=O)n(C)c2)n1 [Example 281, 5-(2-(2-fluoro-6-methylphenoxy)-6-(isopropylamino)pyrimidin-4-yl)-1-methylpyridin-2(1H)-one] | < 500 |
| Cc1cc(Cl)cc(Cl)c1Oc1nc(NS(=O)(=O)C(C)C)cc(-c2ccc(=O)n(C)c2)n1 [Example 34, Propane-2-sulfonic acid [2-(2,4-dichloro-6-methyl-phenoxy)-6-(1-methyl-6-oxo-1,6-dihydro-pyridin-3-yl)-pyrimidin-4-yl]-amide] | < 500 |
| Cc1cccc(C#N)c1Oc1nc(NS(=O)(=O)CCC(F)(F)F)cc(-c2ccc(=O)n(C)c2)n1 [Example 149, N-(2-(2-cyano-6-methylphenoxy)-6-(1-methyl-6-oxo-1,6-dihydropyridin-3-yl)pyrimidin-4-yl)-3,3,3-trifluoropropane-1-sulfonamide] | < 500 |
| CCC(CC)S(=O)(=O)Nc1cc(-c2ccc(=O)n(C)c2)nc(Oc2c(C)cccc2F)n1 [Example 253, Pentane-3-sulfonic acid [2-(2-fluoro-6-methyl-pphenoxy)-6-(1-methyl-6-oxo-1,6-dihydro-pyridin-3-yl)-pyrimidin-4-yl]-amide] | < 500 |
| CCCCS(=O)(=O)Nc1cc(-c2ccc(=O)n(C)c2)nc(Oc2c(F)ccc(C)c2Cl)n1 [Example 255, Butane-1-sulfonic acid [2-(2-chloro-6-fluoro-3-methyl-phenoxy)-6-(1-methyl-6-oxo-1,6-dihydro-pyridin-3-yl)-pyrimidin-4-yl]-amide] | < 500 |
| CCCS(=O)(=O)Nc1cc(-c2ccc(=O)n(C)c2)nc(Oc2c(C)ccc(F)c2F)n1 [Example 348, N-(2-(2,3-difluoro-6-methylphenoxy)-6-(1-methyl-6-oxo-1,6-dihydropyridin-3-yl)pyrimidin-4-yl)propane-1-sulfonamide] | < 500 |
| CCCCS(=O)(=O)Nc1cc(Oc2c(C)cccc2C)nc(-c2cc(C)c(=O)n(C)c2)n1 [Example 56, Butane-1-sulfonic acid [2-(1,5-dimethyl-6-oxo-1,6-dihydro-pyridin-3-yl)-6-(2,6-dimethyl-phenoxy)-pyrimidin-4-yl]-amide] | < 500 |
| CCN(CC)c1cc(-c2ccc(=O)n(C)c2)nc(Oc2ccc(F)cc2F)n1 [Example 277, 5-(6-(diethylamino)-2-(2,4-difluorophenoxy)pyrimidin-4-yl)-1-methylpyridin-2(1H)-one] | < 500 |
| CCCCS(=O)(=O)Nc1nc(Oc2c(C)cccc2F)nc(-c2cc(C)c(=O)n(C)c2)n1 [Example 174, Butane-1-sulfonic acid [4-(1,5-dimethyl-6-oxo-1,6-dihydro-pyridin-3-yl)-6-(2-fluoro-6-methyl-phenoxy)-[1,3,5]triazin-2-]-amide] | < 500 |
| CCCS(=O)(=O)Nc1cc(-c2ccc(=O)n(C)c2)nc(Oc2c(C)cccc2F)n1 [Example 120, Propane-1-sulfonic acid [2-(2-fluoro-6-methyl-phenoxy)-6-(1-methyl-6-oxo-1,6-dihydro-pyridin-3-yl)-pyrimidin-4-yl]-amide] | < 500 |
| CCCCS(=O)(=O)Nc1nc(Oc2c(F)cccc2F)nc(-c2cc(C)c(=O)n(C)c2)n1 [Example 189, Butane-1-sulfonic acid [4-(2,6-difluoro-phenoxy)-6-(1,5-dimethyl-6-oxo-1,6-dihydro-pyridin-3-yl)-[1,3,5]triazin-2-yl]-amide] | < 500 |
| Cc1cccc(F)c1Oc1nc(NS(=O)(=O)CCC(C)C)cc(-c2ccc(=O)n(C)c2)n1 [Example 248, 3-Methyl-butane-1-sulfonic acid [2-(2-fluoro-6-methyl-phenoxy)-6-(1-methyl-6-oxo-1,6-dihydro-pyridin-3-yl)-pyrimidin-4-yl]-amide] | < 500 |
| Cc1ccc(Cl)c(Oc2nc(NS(=O)(=O)CCC(C)C)cc(-c3ccc(=O)n(C)c3)n2)c1F [Example 262, 3-Methyl-butane-1-sulfonic acid [2-(6-chloro-2-fluoro-3-methyl-phenoxy)-6-(1-methyl-6-oxo-1,6-dihydro-pyridin-3-yl)-pyrimidin-4-yl]-amide] | < 500 |
| Cc1cc(-c2cc(CS(=O)(=O)C(C)C)nc(Oc3ccc(F)cc3F)n2)cn(C)c1=O [Example 95, 5-[2-(2,4-Difluoro-phenoxy)-6-(propane-2-sulfonylmethyl)-pyrimidin-4-yl]-1,3-dimethyl-1H-pyridin-2-one] | < 500 |
| COc1nc(NCc2ccccc2)cc(-c2ccc(=O)n(C)c2)n1 [Example 324, 5-(6-Benzylamino-2-methoxy-pyrimidin-4-yl)-1-methyl-1H-pyridin-2-one] | < 500 |
| Cc1cc(-c2cc(NS(=O)(=O)C(C)C)nc(Cc3ccc(F)cc3F)n2)cn(C)c1=O [Example 93, Propane-2-sulfonic acid [2-(2,4-difluoro-benzyl)-6-(1,5-dimethyl-6-oxo-1,6-dihydro-pyridin-3-yl)-pyrimidin-4-yl]-amide] | 500 to 5000 |
| CCCC(C)S(=O)(=O)Nc1cc(-c2ccc(=O)n(C)c2)nc(Oc2c(C)cccc2Cl)n1 (stereo not drawn) [Example 243, Pentane-2-sulfonic acid [2-(2-chloro-6-methyl-pphenoxy)-6-(1-methyl-6-oxo-1,6-dihydro-pyridin-3-yl)-pyrimidin-4-yl]-amide] | < 500 |
| CCS(=O)(=O)Nc1cc(-c2cc(C)c(=O)n(C)c2)nc(Oc2c(C)cc(Cl)cc2Cl)n1 [Example 26, Ethanesulfonic acid [2-(2,4-dichloro-6-methyl-phenoxy)-6-(1,5-dimethyl-6-oxo-1,6-dihydro-pyridin-3-yl)-pyrimidin-4-yl]-amide] | < 500 |
